Measurements taken from publication PMC5354814, “In silico and in vitro drug screening identifies new therapeutic approaches for Ewing sarcoma” (Oncotarget, 2016).
Where two headings read alike, the source gives them in different places.

Experiments:
[1] = cited from earlier work
[2] = Other animal xenograft models, oral auranofin; format: in vivo; details: unpublished data
From the text: As previously reported, Ridaura® was first developed for the management of rheumatoid arthritis as a disease-modifying anti-rheumatic drug (DMARD). However, the adverse effects and the concerns about the long-term consequences of the immunosuppression induced by Ridaura® led to the decline in its use. […] Therefore, we sought to determine if altering the route of delivery could replicate the dramatic in vitro anticancer activity and improve its efficacy in vivo. Previous studies have shown that orally delivered auranofin is rapidly metabolized and intact auranofin has never been detected in the blood. Thus, studies of the pharmacokinetics of auranofin have involved measurement of gold concentrations. Upon oral administration, 25% of auranofin gets absorbed.

[3] = cited from earlier work; for LD50: PO
[4] = mice, 18 months, cited from earlier work
CHLA-258 = assay: Hits validation, dose-response cell proliferation (CellTiter-Glo); format: cell-based; details: 12-point dose-response 50 μmol/L to 1 nmol/L, mean ± SD
Method: (§1) For hits validation and combination study, cells were harvested and aliquoted into 384-well plates at concentrations of 750–1,500 cells per well in a total of 20 μl/well using a Matrix Wellmate (Thermo Scientific). Five μl of culture media containing either vehicles or drug were added to each well the next day (drug concentrations range from 1 nmol/L to 50 μmol/L). For combination study, selected drugs were archived in robotically accessible plates, to which media was added in preparation for addition to master plates by a Nimbus 96 liquid-dispensing workstation (Hamilton). Liquid transfers to dilution and assay plates were handled using the same workstation. Each 384-well master plate contained four 9 by 9 dose-matrix blocks, with eight serial two-fold dilutions (concentrations range from 7.8 nmol/L to 1 μmol/L). Additional wells were reserved for untreated, and vehicle-treated control wells. Cell proliferation was evaluated using Cell-Titer Glo® reagents (Promega). IC50 values were determined for each drug using SigmaPlot (Systat Software). The combination index values were calculated using SigmaPlot (Systat Software) and CompuSyn.

TC-71 = assay: as above; format: cell-based; details: 12-point dose-response 50 μmol/L to 1 nmol/L, mean ± SD
Method: as §1

Hs 863.T. = assay: as above; format: cell-based; details: control cell line, 12-point dose-response, mean ± SD
Method: as §1

A673 = assay: as above; format: cell-based; details: 12-point dose-response 50 μmol/L to 1 nmol/L, mean ± SD
Method: as §1

Hs 822.T. = assay: as above; format: cell-based; details: control cell line, 12-point dose-response, mean ± SD
Method: as §1

RD-ES = assay: as above; format: cell-based; details: 12-point dose-response 50 μmol/L to 1 nmol/L, mean ± SD
Method: as §1

COG-E-352 = assay: as above; format: cell-based; details: 12-point dose-response 50 μmol/L to 1 nmol/L, mean ± SD
Method: as §1

SK-ES-1 = assay: as above; format: cell-based; details: 12-point dose-response 50 μmol/L to 1 nmol/L, mean ± SD
Method: as §1

[5] = set-up: method as in ref 19 (a number printed in a supplementary file, which may have a reference list of its own: not looked up in the article's list); details: rats, up to 15 mg gold/kg p.o.; cited from earlier work
[6] = set-up: method as in ref 19 (a number printed in a supplementary file, which may have a reference list of its own: not looked up in the article's list); details: dog, cited from earlier work
[7] = set-up: method as in ref 19 (a number printed in a supplementary file, which may have a reference list of its own: not looked up in the article's list); details: cited from earlier work
[8] = set-up: method as in ref 19 (a number printed in a supplementary file, which may have a reference list of its own: not looked up in the article's list); details: cited from earlier work; remark: listed apart in the source

CC(=O)OC[C@H]1O[C@@H]([S-])[C@H](OC(C)=O)[C@@H](OC(C)=O)[C@@H]1OC(C)=O.CCP(CC)CC.[Au+] [Auranofin, auranofin]
findings in pregnant rats ([1]; 2.5 mg/kg/day): No such effects were found
findings in pregnant rats ([1]; 5 mg/kg/day): increase above controls in the inc idence of resorptions and a decrease in litter size
perinatal and postnatal study findings, high dose group ([1]; female rats, 8 mg/kg/day, last trimester and lactation): An increase in fetal resorption
general reproductive performance ([1]; female rats, oral 0.25, 0.75 and 3.0 mg/kg/day): no adverse effect on estrous cyclicity
litter size, birth weight or viability of the offspring ([1]; female rats, oral 0.5, 2.5 and 5 mg/kg/day, days 6-15 of pregnancy): no effect on litter size
efficacy when given orally [2]: not effective
LD50 ([3]; Mouse B6C3F1, F): 187 mg/kg
LD50 ([3]; Mouse B6C3F1, M): 190 mg/kg
LD50 ([3]; Mouse CF1, F): 225 mg/kg
acute oral LD50 ([3]; adult mice): 310 mg/kg
instances of tumors above controls ([4]; oral 1, 3 and 9 mg/kg/day): no statistica ll y significant increase
tumor findings ([4]; oral 1, 3 and 6-9 mg/kg/day): increase in benign
IC50 (CHLA-258): 380 ± 190 nM
IC50 (TC-71): 260 ± 140 nM
IC50 (Hs 863.T.): 3.25 ± 0.12 µM
IC50 (A673): 330 ± 220 nM
IC50 (Hs 822.T.): 1450 ± 90 nM
IC50 (RD-ES): 2450 ± 520 nM
IC50 (COG-E-352): 820 ± 190 nM
IC50 (SK-ES-1): 80 nM
induction of liver enzyme activity [5]: failed to induce liver enzyme activity
absorption after oral dosing [6]: 26%
blood gold in plasma proteins [6]: 17%
blood gold in red blood cells [6]: 82%
urinary excretion [6]: 16%
elimination in feces ([6]; within 21 days): 83%
tissue gold concentration ([7]; rat tissues): highest in the kidneys
absorption after oral dosing ([7]; rat): 19%
blood gold in plasma proteins ([7]; rat): 35%
blood gold in red blood cells ([7]; rat): 65%
urinary excretion ([7]; rat): 10%
elimination in feces ([7]; single oral dose, within 21 days, rat): 79%
effect on hemodynamic and electrocardiographic parameters, pulmonary function, CNS activity, gastric mucosa or endocrine system [8]: no significant effect
